Results on 7 molecules are retold here after PMC8805583, “Discovery of Herbacetin as a Novel SGK1 Inhibitor to Alleviate Myocardial Hypertrophy” (Advanced Science, 2021).

The target in one experiment is T1, SGK1 (Homo sapiens, UniProt O00141).
T1 sequence (O00141 1-431): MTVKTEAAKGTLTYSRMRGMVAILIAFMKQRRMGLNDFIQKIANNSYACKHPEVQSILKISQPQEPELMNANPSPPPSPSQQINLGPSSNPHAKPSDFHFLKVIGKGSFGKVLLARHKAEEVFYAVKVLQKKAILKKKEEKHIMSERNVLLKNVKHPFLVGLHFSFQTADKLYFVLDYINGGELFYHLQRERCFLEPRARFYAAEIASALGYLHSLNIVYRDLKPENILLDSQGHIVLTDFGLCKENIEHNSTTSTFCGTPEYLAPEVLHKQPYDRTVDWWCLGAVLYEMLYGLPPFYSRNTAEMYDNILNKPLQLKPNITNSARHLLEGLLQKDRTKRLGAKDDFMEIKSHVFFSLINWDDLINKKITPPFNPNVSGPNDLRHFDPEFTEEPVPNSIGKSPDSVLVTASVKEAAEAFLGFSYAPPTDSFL
Kind of experiment: Mass spectrometry-based SGK1 kinase inhibitory assay (LC/MS of phosphorylated […]). It counts as biochemical. As to conditions: for reduction in SGK1 inhibitory activity, absence of -OH at C-8: compared with HBT. The text has this:
To identify active compounds with SGK1 inhibitory activity from Ext.R, a novel mass‐spectrometry based kinase inhibitory assay was developed. A polypeptide sequence ([…], m/z: 618.6) derived from glycogen Synthase Kinase‐3(GSK3), a known substrate of SGK1, was optimized and synthesized. We subsequently used liquid chromatography coupled with mass spectrometry (LC/MS) to detect and quantify its phosphorylation level ([…](p)FAE, m/z:658.7) (Figure 3A).^[ [26] ^] Basal level SGK1 was supplemented to each well, and the peak area of phosphorylation was measured in the presence or absence of testing compounds. […] After investigating the major chemical constituents in Ext.R (Table S3, Supporting Information), a set of compounds in Ext.R were subsequently screened for their impacts on SGK1 activity. […] The direct interaction between HBT and SGK1 was further verified by temperature‐ and dose‐dependent cellular thermal shift assays (Figure 3E,F). We further performed a direct binding assay of HBT to SGK1 by KINOMEscan assay (Eurofins Discovery).
Synthesis of […] was prepared by Shanghai Sangong Biotech. In order to ensure the phosphorylation reaction of SGK1, SGK1 (0.25 µg mL^−1) was added to kinase buffer (25 mmol Tris [pH 7.5], 5 mmol β‐glycerolphosphate, 2 mmol DTT, 10 mmol MgCl2) with the substrate peptide […] (25 µmol) and ATP (200 µmol) and incubated for 1 h at 30 °C in the presence or absence of inhibitors. A concentration‐dependent assay for SGK1 at different concentrations (0.05, 0.1, 0.2, 0.25, and 0.3 µg mL^−1) was performed. Reactions were terminated by the addition of methyl alcohol with 0.1% trifluoroacetic acid (TFA), and supernatants were analyzed by the Agilent 1100 LC system (Agilent Technologies, USA) and a 1946D single quadrupole mass spectrometer. The acquisition parameters for LC/MS were set for positive ionization mode and selected ion monitoring (SIM) m/z values of 618.6 and 658.7 for the substrate peptide and product peptide respectively. Chromatographic separation was performed by a reversed‐phase ZORBAX SB‐C18 analytical column. The mobile phase included water containing 0.1% v/v TFA (A) and acetonitrile containing 0.1% v/v TFA (B). The flow rate was 0.6 mL min^−1. A gradient program was carried out according to the following profile: 0 min, 13% B; 15 min, 28% B; 16 min, 100% B. The constituents of Ext.R were screened by the assay to evaluate their inhibitory effects on SGK1 activity. A minimum of three replicates of each sample were analyzed and averaged together. Inhibition of SGK1 was calculated by the following equation (1) Inhibitionrate%=PC−PS/PC P C and P S represented the peak area of product peptide in the control group without test compounds and the tested sample group with various test compounds, respectively.

Experiment [1] has as its system SGK1-dependent phosphorylation of NDRG1. Further details: method as in PMID 21865856. As to conditions: cited from earlier work.
Where [2] appears, read: MS-based kinase inhibitory assay.

Turning to `O=c1c(O)c(-c2ccc(O)cc2)oc2cc(O)cc(O)c12` [A1], on SGK1, the “reduction in SGK1 inhibitory activity, absence of -OH at C-8” value was “greater than 10 fold”. At SGK1 (in figure, n = 3), this molecule had an IC50 of 11.3 µM.

`O=c1c(O)c(-c2ccc(O)cc2)oc2c(O)c(O)ccc12` [A2, 3,7,8‐trihydroxy‐2‐(4‐hydroxyphenyl) chromen‐4‐one] returned a 50% inhibitory concentration (IC50) against SGK1 (setting [2]) of 0.307 µM.

In the case of `O=c1cc(-c2ccc(O)cc2)oc2c(O)c(O)cc(O)c12` [A3], at SGK1, the “reduction in SGK1 inhibitory activity, absence of -OH at C-3” value was “significant reduction”.

With `O=c1c(O)c(-c2ccc(O)cc2)oc2cc(O)ccc12` [A4], the “reduction in SGK1 inhibitory activity, absence of -OH at C-8” value on SGK1 is “greater than 10 fold”. The molecule also returned an IC50 against SGK1 (in figure, n = 3) of 11.6 µM.

Regarding `O=c1cc(-c2ccc(O)cc2)oc2c(O)c(O)ccc12` [A5], the “reduction in SGK1 inhibitory activity, absence of -OH at C-3” value on SGK1 was “significant reduction”.

Regarding `CCc1c(C(=O)NNC(=O)C(O)c2cc(F)cc(F)c2)ccc(O)c1C` (stereo not drawn) [EMD638683, reference compound], in experiment [1], the IC50 is 3.35 µM.

For `O=C(O)/C=C/c1ccc(O)cc1` [p-coumaric acid], the IC50 at SGK1 (setting [2]) worked out at 8.04 µM.
